Test results taken from patent US20260232767A1, “INTERLEUKIN-23 RECEPTOR ANTAGONIST PEPTIDES FOR USE IN THE TREATMENT OF PSORIASIS” (Janssen Pharmaceutica NV, priority 2023, published 2026).

Tested on: subjects with moderate-to-severe plaque psoriasis
Assay: Treatment disposition, Example 2
Assay type: in vivo, human
[1] = 25 mg BID, Week 16 to Week 52, N=40
[2] = 25 mg BID, through Week 52, N=41
[3] = 25 mg QD, Week 16 to Week 52, N=35
[4] = 25 mg QD, through Week 52, N=43
[5] = 50 mg QD, through Week 52, N=43
[6] = 100 mg BID, through Week 52, N=42
[7] = 100 mg QD, Week 16 to Week 52, N=40
[8] = 100 mg QD, through Week 52, N=43
[9] = Combined, Week 16 to Week 52, N=227
[10] = Combined, through Week 52, N=247

CC(=O)NCCCC[C@@H]1NC(=O)[C@H](Cc2c[nH]c3c(C)cccc23)NC(=O)[C@H]([C@@H](C)O)NC(=O)[C@H](CC(N)=O)NC(=O)[C@@H](NC(C)=O)C(C)(C)SSC(C)(C)[C@@H](C(=O)N[C@@H](Cc2ccc(OCCN)cc2)C(=O)N[C@@H](Cc2ccc3ccccc3c2)C(=O)NC2(C(=O)N[C@@H](CCC(=O)O)C(=O)N[C@@H](CC(N)=O)C(=O)N[C@@H](Cc3cccnc3)C(=O)N(C)CC(N)=O)CCOCC2)NC1=O [IL-23 receptor antagonist peptide, Ac-[Pen]*-N-T-[W(7-Me)]-[Lys(Ac)]-[Pen]*-Phe[4-(2-aminoethoxy)]-[2-Nal]-[THP]-E-N-[3-Pal]-Sarc-NH2 (*[Pen]-[Pen]* formdisulfidebond)]
Discontinued: Adverse Event, % [1]: (2.5%)
Discontinued: Other Adverse Event, % [1]: (2.5%)
Discontinued: Adverse Event, % [2]: (2.4%)
Discontinued: Other Adverse Event, % [2]: (2.4%)
Discontinued: Adverse Event, % [3]: (2.9%)
Discontinued: Other Adverse Event, % [3]: (2.9%)
Discontinued: Adverse Event, % [4]: (7.0%)
Discontinued: Other Adverse Event, % [4]: (7.0%)
Discontinued: Adverse Event, % [5]: (4.7%)
Discontinued: Other Adverse Event, % [5]: (4.7%)
Discontinued: Adverse Event, % [6]: (2.4%)
Discontinued: Other Adverse Event, % [6]: (2.4%)
Discontinued: Adverse Event, % [7]: (2.5%)
Discontinued: Other Adverse Event, % [7]: (2.5%)
Discontinued: Adverse Event, % [8]: (4.7%)
Discontinued: Other Adverse Event, % [8]: (4.7%)
Discontinued: Adverse Event, % [9]: (1.3%)
Discontinued: Other Adverse Event, % [9]: (1.3%)
Discontinued: Adverse Event, % [10]: (3.6%)
Discontinued: Other Adverse Event, % [10]: (3.6%)
